The values that follow come from BindingDB's records for doi:10.1111/cbdd.12842 (Jagiellonian University Medical College, 2017).

Structures can show the parent of a compound that is named as a salt.

For this assay, the target named is T1, 5-hydroxytryptamine receptor 1A (Homo sapiens, UniProt P08908).
T1 sequence (P08908 whole entry): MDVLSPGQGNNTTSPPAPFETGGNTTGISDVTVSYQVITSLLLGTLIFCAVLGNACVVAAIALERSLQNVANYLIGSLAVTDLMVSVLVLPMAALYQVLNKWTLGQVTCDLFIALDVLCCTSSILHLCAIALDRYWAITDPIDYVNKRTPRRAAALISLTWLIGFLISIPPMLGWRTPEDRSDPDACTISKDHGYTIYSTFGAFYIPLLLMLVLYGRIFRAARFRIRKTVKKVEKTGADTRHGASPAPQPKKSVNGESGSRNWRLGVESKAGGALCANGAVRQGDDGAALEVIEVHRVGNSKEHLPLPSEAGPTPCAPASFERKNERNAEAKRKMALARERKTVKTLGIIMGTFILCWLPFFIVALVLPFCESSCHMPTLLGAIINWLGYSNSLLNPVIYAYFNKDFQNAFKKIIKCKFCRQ
The assay can be described thus: Radioligand Binding Assay ([3H]-8-OH-DPAT). The conditions noted are these: pH 7.4. Here is the method:
Binding experiments were conducted in 96-well microplates in a total volume of 250 μL of buffer (50 mM Tris-HCl pH 7.4, 10 mM MgCl2, 0.5 mM EDTA). Reaction mix included 50 μL solution of test compound, 50 μL of [3H]-8-OH-DPAT, and 150 μL of diluted membranes or the tissue suspension. Incubation condition: 60 min at 27 °C.
Turning to `CCC(CO)NCCOc1ccc2oc3ccccc3c(=O)c2c1` (stereo not drawn) [R,S-2-{2-[(1-hydroxybutan-2-yl]amino)ethoxy}-9H-xanthen-9-one (9)], the inhibition constant Ki (as a rule, a dissociation constant, usually derived from enzyme kinetics or from competition with a known ligand) worked out at 659 nM.

As for `CCC(O)CNCCOc1ccc2oc3ccccc3c(=O)c2c1` (stereo not drawn) [R,S-2-{2-[(2-hydroxybutyl)amino]ethoxy}-9H-xanthen-9-one hydrochloride (8a)], the affinity, expressed as Ki, was 320 nM.

As for `CCC(CO)NCCCOc1ccc2oc3ccccc3c(=O)c2c1` (stereo not drawn) [R,S-2-{3-[(1-hydroxybutan-2-yl)amino]propoxy}-9H-xanthen-9-one (12)], the inhibition constant (Ki) was above 5000 nM.
